This assay addresses T1, human adenosine A2A receptor (Homo sapiens, UniProt P29274).
T1 construct: expressed in transfected cells; host or cells: CHO cells, Semliki Forest virus expression system; membrane preparation
Put plainly: [3H]-SCH-58261 binding assay, human adenosine A2A receptor. The conditions noted are these: membranes of CHO cells recombinantly expressing the human A2A receptor, Ki from IC50 by Cheng-Prussoff equation, read-out: HA2A KI. The protocol:
Human Adenosine A2A Receptor
The human adenosine A2A receptor was recombinantly expressed in Chinese hamster ovary (CHO) cells using the semliki forest virus expression system. Cells were harvested, washed twice by centrifugation, homogenized and again washed by centrifugation. The final washed membrane pellet was suspended in a Tris (50 mM) buffer containing 120 mM NaCl, 5 mM KCl, 2 mM CaCl2 and 10 mM MgCl2 (pH 7.4) (buffer A). The [^3H]-SCH-58261 (Dionisotti et al., 1997, Br. J. Pharmacol. 121, 353) binding assay was carried out in 96-well plates in the presence of 2.5 μg of membrane protein, 0.5 mg of Ysi-poly-l-lysine SPA beads and 0.1 U adenosine deaminase in a final volume of 200 μl of buffer A. Non-specific binding was defined using xanthine amine congener (XAC; 2 μM). Compounds were tested at 10 concentrations from 10 μM to 0.3 nM. All assays were conducted in duplicate and repeated at least twice. Assay plates were incubated for 1 hour at room temperature before centrifugation and then bound ligand was determined using a Packard Topcount scintillation counter. IC50 values were calculated using a non-linear curve fitting program and Ki values calculated using the Cheng-Prussoff equation.
In accordance with the invention, the compounds of formula I have a high affinity toward the A2A receptor. The table below (after Example 10) describes specific values of prepared compounds.
T1 sequence (P29274 whole entry): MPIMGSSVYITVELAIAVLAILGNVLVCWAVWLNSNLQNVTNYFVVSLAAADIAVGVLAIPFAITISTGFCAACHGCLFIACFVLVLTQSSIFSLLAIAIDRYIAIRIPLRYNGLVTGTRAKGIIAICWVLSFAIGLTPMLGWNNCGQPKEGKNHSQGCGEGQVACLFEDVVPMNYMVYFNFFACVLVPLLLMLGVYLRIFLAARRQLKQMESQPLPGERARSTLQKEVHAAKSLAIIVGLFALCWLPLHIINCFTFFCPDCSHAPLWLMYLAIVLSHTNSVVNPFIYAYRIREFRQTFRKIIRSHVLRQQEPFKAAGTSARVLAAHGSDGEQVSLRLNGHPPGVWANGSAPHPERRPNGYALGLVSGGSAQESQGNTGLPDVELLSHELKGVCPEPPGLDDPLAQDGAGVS
As usually defined, the Ki is a dissociation constant, usually derived from enzyme kinetics or from competition with a known ligand. As for `COc1ccc(-c2cccc(F)c2)c2nc(NC(=O)c3ccc(Br)o3)nn12` [Example 15, 5-Bromo-furan-2-carboxylic acid [8-(3-fluoro-phenyl)-5-methoxy-[1,2,4]triazolo[1,5-a]pyridin-2-yl]-amide], the Ki was determined as 572 nM.
Take `COc1cccc(-c2ccc(OC)n3nc(NC(=O)c4ccc(F)cc4)nc23)c1` [Example 19, 4-Fluoro-N-[5-methoxy-8-(3-methoxy-phenyl)-[1,2,4]triazolo[1,5-a]pyridin-2-yl]-benzamide]: the Ki was determined as 748 nM.
Regarding `COc1ccc(-c2ccc(F)cc2)c2nc(NC(=O)c3ccc(F)cc3)nn12` [Example 18, 4-Fluoro-N-[8-(4-fluoro-phenyl)-5-methoxy-[1,2,4]triazolo[1,5-a]pyridin-2-yl]-benzamide], the Ki is 664 nM.
Consider `COc1ccc(Br)c(C(=O)Nc2nc3c(-c4cccc(F)c4)ccc(OC)n3n2)c1` [Example 14, 2-Bromo-N-[8-(3-fluoro-phenyl)-5-methoxy-[1,2,4]triazolo[1,5-a]pyridin-2-yl]-5-methoxy-benzamide], for which the Ki is 908 nM.
With `COc1ccc(-c2ccc(F)cc2)c2nc(NC(=O)c3ccccc3F)nn12` [Example 20, 2-Fluoro-N-[8-(4-fluoro-phenyl)-5-methoxy-[1,2,4]triazolo[1,5-a]pyridin-2-yl]-benzamide] the figure was 784 nM; with `COc1cccc(-c2ccc(OC)n3nc(NC(=O)c4ccc(Br)o4)nc23)c1` [Example 16, 5-Bromo-furan-2-carboxylic acid [5-methoxy-8-(3-methoxy-phenyl)-[1,2,4]triazolo[1,5-a]pyridin-2-yl]-amide], 560 nM.
In the case of `COc1ccc(-c2ccccc2)c2nc(NC(=O)c3ccc(C(F)(F)F)cc3)nn12` [Example 11, N-(5-Methoxy-8-phenyl-[1,2,4]triazolo[1,5-a]pyridin-2-yl)-4-trifluoromethyl-benzamide] it was 884 nM; in that of `COc1ccc(-c2ccccc2)c2nc(NC(=O)c3cccc(C)c3)nn12` [Example 17, N-(5-Methoxy-8-phenyl-[1,2,4]triazolo[1,5-a]pyridin-2-yl)-3-methyl-benzamide], 984 nM.
In the case of `COc1cccc(-c2ccc(OC)n3nc(NC(=O)c4cccs4)nc23)c1` [Example 21, Thiophene-2-carboxylic acid[5-methoxy-8-(3-methoxy-phenyl)-[1,2,4]thiazolo[1,5-a]pyridin-2-yl]-amide] it was 516 nM; in that of `COc1ccc(-c2ccc(F)cc2)c2nc(NC(=O)c3ccc(Br)cc3)nn12` [Example 12, 4-Bromo-N-[8-(4-fluoro-phenyl)-5-methoxy-[1,2,4]triazolo[1,5-a]pyridin-2-yl]-benzamide], 776 nM; in that of `COc1cccc(-c2ccc(OC)n3nc(NC(=O)c4ccc(Br)cc4)nc23)c1` [Example 13, 4-Bromo-N-[5-methoxy-8-(3-methoxy-phenyl)-[1,2,4]triazolo[1,5-a]pyridin-2-yl]-benzamide], 480 nM.

(Values after US6693116B2, “Adenosine receptor ligands” (Hoffmann-La Roche Inc., priority 2001, dated 2004).)
